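Dose response: 5 concentrations. Exposure: 48 h. Format: 96-well plates. Endpoint: linear interpolation; highest concentration if not reached. The concentration for 50% growth inhibition is given as GI50. TGI: total growth inhibition.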
Key:
Assay in all cases: NCI anticancer screen, dose series, 48 h
HCC-2998 colon = tested on: HCC-2998 colon
MCF7 breast = tested on: MCF7 breast
MDA-MB-231 breast = tested on: MDA-MB-231 breast
RXF 393 renal = tested on: RXF 393 renal
NCI-H23 lung = tested on: NCI-H23 lung
A549 NSCLC = tested on: A549 NSCLC
RPMI-8226 leukemia = tested on: RPMI-8226 leukemia
KM12 colon = tested on: KM12 colon
HS 578T breast = tested on: HS 578T breast
HOP-92 NSCLC = tested on: HOP-92 NSCLC
K-562 leukemia = tested on: K-562 leukemia
NCI-H460 lung = tested on: NCI-H460 lung
SNB-75 CNS = tested on: SNB-75 CNS
OVCAR-4 ovarian = tested on: OVCAR-4 ovarian
T-47D breast = tested on: T-47D breast
HL-60(TB) leukemia = tested on: HL-60(TB) leukemia
IGROV1 ovarian = tested on: IGROV1 ovarian
UACC-257 melanoma = tested on: UACC-257 melanoma
U251 CNS = tested on: U251 CNS
ACHN renal = tested on: ACHN renal
SNB-19 CNS = tested on: SNB-19 CNS
NCI-H226 lung = tested on: NCI-H226 lung
HCT-116 colon = tested on: HCT-116 colon
M14 melanoma = tested on: M14 melanoma
OVCAR-8 ovarian = tested on: OVCAR-8 ovarian
PC-3 prostate = tested on: PC-3 prostate
MOLT-4 leukemia = tested on: MOLT-4 leukemia
NCI/ADR-RES ovarian = tested on: NCI/ADR-RES ovarian

Nc1cc(F)ccc1NC(=O)c1ccc(NC(=O)C/C=C/c2cccnc2)cn1
GI50 (HCC-2998 colon): 1.43 µM
TGI (HCC-2998 colon): 6.98 µM
GI50 (MCF7 breast): 1.11 µM
TGI (MCF7 breast): 10 µM
GI50 (MDA-MB-231 breast): 8.61 µM
TGI (MDA-MB-231 breast): > 50 µM
GI50 (RXF 393 renal): 0.938 µM
TGI (RXF 393 renal): 3.48 µM
GI50 (NCI-H23 lung): 1.68 µM
TGI (NCI-H23 lung): 37.9 µM
GI50 (A549 NSCLC): 3.02 µM
TGI (A549 NSCLC): > 50 µM
GI50 (RPMI-8226 leukemia): 0.24 µM
TGI (RPMI-8226 leukemia): 2.05 µM
GI50 (KM12 colon): 2.8 µM
TGI (KM12 colon): > 50 µM
GI50 (HS 578T breast): 1.3 µM
TGI (HS 578T breast): > 50 µM
GI50 (HOP-92 NSCLC): 0.699 µM
TGI (HOP-92 NSCLC): 10.9 µM
GI50 (K-562 leukemia): 0.302 µM
TGI (K-562 leukemia): > 50 µM
GI50 (NCI-H460 lung): 1.43 µM
TGI (NCI-H460 lung): > 50 µM
GI50 (SNB-75 CNS): 0.794 µM
TGI (SNB-75 CNS): 47.3 µM
GI50 (OVCAR-4 ovarian): 2.21 µM
TGI (OVCAR-4 ovarian): > 50 µM
GI50 (T-47D breast): 0.75 µM
TGI (T-47D breast): > 50 µM
GI50 (HL-60(TB) leukemia): 0.525 µM
TGI (HL-60(TB) leukemia): > 50 µM
GI50 (IGROV1 ovarian): 0.804 µM
TGI (IGROV1 ovarian): > 50 µM
GI50 (UACC-257 melanoma): 1.65 µM
TGI (UACC-257 melanoma): > 50 µM
GI50 (U251 CNS): 1.51 µM
TGI (U251 CNS): > 50 µM
GI50 (ACHN renal): 2.21 µM
TGI (ACHN renal): > 50 µM
GI50 (SNB-19 CNS): 2.15 µM
TGI (SNB-19 CNS): > 50 µM
GI50 (NCI-H226 lung): 2.3 µM
TGI (NCI-H226 lung): > 50 µM
GI50 (HCT-116 colon): 0.186 µM
TGI (HCT-116 colon): 3.42 µM
GI50 (M14 melanoma): 0.563 µM
TGI (M14 melanoma): > 50 µM
GI50 (OVCAR-8 ovarian): 0.147 µM
TGI (OVCAR-8 ovarian): > 50 µM
GI50 (PC-3 prostate): 1.11 µM
TGI (PC-3 prostate): > 50 µM
GI50 (MOLT-4 leukemia): 0.908 µM
TGI (MOLT-4 leukemia): > 50 µM
GI50 (NCI/ADR-RES ovarian): 1.31 µM
TGI (NCI/ADR-RES ovarian): > 50 µM
